Test results published in ChEMBL document CHEMBL1201862, “PubChem BioAssay data set” (2004).
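Cultured in 96-well plates, cells were exposed to test compound for 48 hours across five concentrations. GI50 = concentration required for 50% inhibition of growth.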 Calls of active or inactive are those of the source. Cut-off read from the data, not from the text of the source: active = GI50 up to about 1.1 µM and inactive = higher.

Experiments:
Assay in all cases: inhibition of tumour cell growth, NCI panel, 48 h
HT-29 = test system: HT-29
OVCAR-8 = test system: OVCAR-8
K562 = test system: K562
T47D = test system: T47D
SF-539 = test system: SF-539
KM12 = test system: KM12
MOLT-4 = test system: MOLT-4
MDA-MB-231 = test system: MDA-MB-231
MCF7 = test system: MCF7
SK-MEL-28 = test system: SK-MEL-28
HOP-62 = test system: HOP-62
NCI/ADR-RES = test system: NCI/ADR-RES
NCI-H226 = test system: NCI-H226
M14 = test system: M14
CAKI-1 = test system: CAKI-1
UACC-257 = test system: UACC-257
BT-549 = test system: BT-549
UO-31 = test system: UO-31
UACC-62 = test system: UACC-62
HCT-15 = test system: HCT-15
DU-145 = test system: DU-145
LOX IMVI = test system: LOX IMVI
A498 = test system: A498
OVCAR-3 = test system: OVCAR-3
HCT-116 = test system: HCT-116
NCI-H23 = test system: NCI-H23
PC-3 = test system: PC-3
MDA-MB-435 = test system: MDA-MB-435
SK-MEL-2 = test system: SK-MEL-2
EKVX = test system: EKVX
U-251 = test system: U-251
CCRF-CEM = test system: CCRF-CEM
SW-620 = test system: SW-620
COLO 205 = test system: COLO 205
OVCAR-5 = test system: OVCAR-5
SR = test system: SR
SNB-75 = test system: SNB-75
HL-60 = test system: HL-60
786-0 = test system: 786-0
IGROV-1 = test system: IGROV-1
NCI-H460 = test system: NCI-H460
NCI-H522 = test system: NCI-H522
RXF 393 = test system: RXF 393
A549 = test system: A549
SF-268 = test system: SF-268
OVCAR-4 = test system: OVCAR-4
RPMI-8226 = test system: RPMI-8226
SF-295 = test system: SF-295
SK-OV-3 = test system: SK-OV-3
TK-10 = test system: TK-10
ACHN = test system: ACHN
SN12C = test system: SN12C
HCC 2998 = test system: HCC 2998
SK-MEL-5 = test system: SK-MEL-5
HOP-92 = test system: HOP-92
Hs-578T = test system: Hs-578T
SNB-19 = test system: SNB-19
MDA-N = test system: MDA-N
Malme-3M = test system: Malme-3M

N#CI1OC(=O)c2ccccc21
GI50 (HT-29): > 100 µM (inactive)
GI50 (OVCAR-8): > 100 µM (inactive)
GI50 (K562): 39.8 µM (inactive)
GI50 (T47D): > 100 µM (inactive)
GI50 (SF-539): > 100 µM (inactive)
GI50 (KM12): > 100 µM (inactive)
GI50 (MOLT-4): 92.9 µM (inactive)
GI50 (MDA-MB-231): > 100 µM (inactive)
GI50 (MCF7): 60.7 µM (inactive)
GI50 (SK-MEL-28): 92 µM (inactive)
GI50 (HOP-62): > 100 µM (inactive)
GI50 (NCI/ADR-RES): > 100 µM (inactive)
GI50 (NCI-H226): > 100 µM (inactive)
GI50 (M14): > 100 µM (inactive)
GI50 (CAKI-1): 40.7 µM (inactive)
GI50 (UACC-257): > 100 µM (inactive)
GI50 (BT-549): 91.2 µM (inactive)
GI50 (UO-31): > 100 µM (inactive)
GI50 (UACC-62): > 100 µM (inactive)
GI50 (HCT-15): 37.2 µM
GI50 (DU-145): > 100 µM (inactive)
GI50 (LOX IMVI): > 100 µM (inactive)
GI50 (A498): > 100 µM (inactive)
GI50 (OVCAR-3): > 100 µM (inactive)
GI50 (HCT-116): > 100 µM (inactive)
GI50 (NCI-H23): > 100 µM (inactive)
GI50 (PC-3): > 100 µM (inactive)
GI50 (MDA-MB-435): > 100 µM (inactive)
GI50 (SK-MEL-2): > 100 µM (inactive)
GI50 (EKVX): > 100 µM (inactive)
GI50 (U-251): > 100 µM (inactive)
GI50 (CCRF-CEM): 2.83 µM (inactive)
GI50 (SW-620): > 100 µM (inactive)
GI50 (COLO 205): > 100 µM (inactive)
GI50 (OVCAR-5): > 100 µM (inactive)
GI50 (SR): 23.6 µM (inactive)
GI50 (SNB-75): > 100 µM (inactive)
GI50 (HL-60): 59.6 µM (inactive)
GI50 (786-0): > 100 µM (inactive)
GI50 (IGROV-1): > 100 µM (inactive)
GI50 (NCI-H460): > 100 µM (inactive)
GI50 (NCI-H522): 18.2 µM (inactive)
GI50 (RXF 393): > 100 µM (inactive)
GI50 (A549): > 100 µM (inactive)
GI50 (SF-268): > 100 µM (inactive)
GI50 (OVCAR-4): > 100 µM (inactive)
GI50 (RPMI-8226): 38.5 µM (inactive)
GI50 (SF-295): > 100 µM (inactive)
GI50 (SK-OV-3): > 100 µM (inactive)
GI50 (TK-10): > 100 µM (inactive)
GI50 (ACHN): > 100 µM (inactive)
GI50 (SN12C): > 100 µM (inactive)
GI50 (HCC 2998): > 100 µM (inactive)
GI50 (SK-MEL-5): > 100 µM (inactive)

Cc1ccc(C)c(NC(=O)C(=O)C2C(=O)C3=C(CC2(C)C)Nc2ccccc2S3)c1 (stereo not given)
GI50 (HT-29): > 100 µM (inactive)
GI50 (OVCAR-8): 33.8 µM (inactive)
GI50 (SF-539): 56.9 µM (inactive)
GI50 (KM12): > 100 µM (inactive)
GI50 (MOLT-4): 23.9 µM (inactive)
GI50 (MDA-MB-231): 97.1 µM (inactive)
GI50 (MCF7): > 100 µM (inactive)
GI50 (SK-MEL-28): > 100 µM (inactive)
GI50 (HOP-62): 31.6 µM (inactive)
GI50 (NCI/ADR-RES): 65.2 µM (inactive)
GI50 (NCI-H226): 58.1 µM (inactive)
GI50 (M14): > 100 µM (inactive)
GI50 (CAKI-1): > 100 µM (inactive)
GI50 (UACC-257): > 100 µM (inactive)
GI50 (BT-549): > 100 µM (inactive)
GI50 (UO-31): 53.8 µM (inactive)
GI50 (UACC-62): > 100 µM (inactive)
GI50 (HCT-15): > 100 µM
GI50 (DU-145): 93.5 µM (inactive)
GI50 (LOX IMVI): > 100 µM (inactive)
GI50 (OVCAR-3): 55.6 µM (inactive)
GI50 (HCT-116): > 100 µM (inactive)
GI50 (NCI-H23): > 100 µM (inactive)
GI50 (PC-3): > 100 µM (inactive)
GI50 (MDA-MB-435): > 100 µM (inactive)
GI50 (SK-MEL-2): > 100 µM (inactive)
GI50 (EKVX): 73.5 µM (inactive)
GI50 (U-251): 87.9 µM (inactive)
GI50 (CCRF-CEM): 70.6 µM (inactive)
GI50 (SW-620): > 100 µM (inactive)
GI50 (COLO 205): > 100 µM (inactive)
GI50 (HOP-92): 52.1 µM (inactive)
GI50 (OVCAR-5): > 100 µM (inactive)
GI50 (SNB-75): 29.4 µM (inactive)
GI50 (HL-60): > 100 µM (inactive)
GI50 (Hs-578T): 69.2 µM (inactive)
GI50 (SNB-19): > 100 µM (inactive)
GI50 (786-0): 61.8 µM (inactive)
GI50 (IGROV-1): 69.7 µM (inactive)
GI50 (NCI-H460): > 100 µM (inactive)
GI50 (NCI-H522): > 100 µM (inactive)
GI50 (RXF 393): 60.5 µM (inactive)
GI50 (A549): > 100 µM (inactive)
GI50 (SF-268): 62.7 µM (inactive)
GI50 (MDA-N): > 100 µM (inactive)
GI50 (OVCAR-4): > 100 µM (inactive)
GI50 (SF-295): 58.9 µM (inactive)
GI50 (SK-OV-3): 60.4 µM (inactive)
GI50 (TK-10): > 100 µM (inactive)
GI50 (ACHN): > 100 µM (inactive)
GI50 (SN12C): > 100 µM (inactive)
GI50 (HCC 2998): > 100 µM (inactive)
GI50 (SK-MEL-5): 79.8 µM (inactive)

FC(F)(Sc1ccccn1)c1nc2ccccc2o1
GI50 (HT-29): > 100 µM (inactive)
GI50 (OVCAR-8): > 100 µM (inactive)
GI50 (Malme-3M): > 100 µM (inactive)
GI50 (K562): 60.5 µM (inactive)
GI50 (T47D): > 100 µM (inactive)
GI50 (SF-539): > 100 µM (inactive)
GI50 (KM12): > 100 µM (inactive)
GI50 (MOLT-4): > 100 µM (inactive)
GI50 (MDA-MB-231): > 100 µM (inactive)
GI50 (MCF7): 55.2 µM (inactive)
GI50 (SK-MEL-28): > 100 µM (inactive)
GI50 (HOP-62): > 100 µM (inactive)
GI50 (NCI/ADR-RES): 85.3 µM (inactive)
GI50 (NCI-H226): > 100 µM (inactive)
GI50 (M14): > 100 µM (inactive)
GI50 (CAKI-1): > 100 µM (inactive)
GI50 (UACC-257): > 100 µM (inactive)
GI50 (BT-549): 64.1 µM (inactive)
GI50 (UO-31): 69.7 µM (inactive)
GI50 (UACC-62): > 100 µM (inactive)
GI50 (HCT-15): 55.7 µM
GI50 (DU-145): > 100 µM (inactive)
GI50 (A498): 38.7 µM (inactive)
GI50 (OVCAR-3): 61.4 µM (inactive)
GI50 (HCT-116): 62.2 µM (inactive)
GI50 (NCI-H23): > 100 µM (inactive)
GI50 (PC-3): > 100 µM (inactive)
GI50 (MDA-MB-435): > 100 µM (inactive)
GI50 (SK-MEL-2): > 100 µM (inactive)
GI50 (U-251): 38.6 µM (inactive)
GI50 (CCRF-CEM): 65.2 µM (inactive)
GI50 (SW-620): > 100 µM (inactive)
GI50 (COLO 205): > 100 µM (inactive)
GI50 (HOP-92): 76.6 µM (inactive)
GI50 (OVCAR-5): > 100 µM (inactive)
GI50 (SR): > 100 µM (inactive)
GI50 (786-0): > 100 µM (inactive)
GI50 (IGROV-1): > 100 µM (inactive)
GI50 (NCI-H460): > 100 µM (inactive)
GI50 (NCI-H522): > 100 µM (inactive)
GI50 (RXF 393): > 100 µM (inactive)
GI50 (A549): > 100 µM (inactive)
GI50 (SF-268): > 100 µM (inactive)
GI50 (MDA-N): > 100 µM (inactive)
GI50 (OVCAR-4): > 100 µM (inactive)
GI50 (RPMI-8226): > 100 µM (inactive)
GI50 (SF-295): > 100 µM (inactive)
GI50 (SK-OV-3): > 100 µM (inactive)
GI50 (TK-10): > 100 µM (inactive)
GI50 (ACHN): > 100 µM (inactive)
GI50 (SN12C): > 100 µM (inactive)
GI50 (HCC 2998): > 100 µM (inactive)
GI50 (SK-MEL-5): > 100 µM (inactive)
